{
  "source": "paper PMC8997165",
  "about": "“Transcriptional CDK Inhibitors as Potential Treatment Option for Testicular Germ Cell Tumors” (Cancers, 2022)",
  "assay_type_in_all_cases": "cell-based, human",
  "key": {"TGCT cell lines": {"test_system": "TGCT cell lines", "experiment": "XTT cell viability assay, summarised over TGCT tumor cell lines", "experimental": "(§1) The following cell lines were used 2102EP, 2102EP-R, NCCIT, NCCIT-R (all ECs), TCam2 (seminoma cell line), FS1 (Sertoli cell line) and MPAF (human adult fibroblast cell line). Cells were cultivated as described previously. In brief, the ECs were cultivated in Dulbecco’s modified Eagle’s medium (DMEM) supplemented with 10% fetal bovine serum (FBS), 1% penicillin–streptomycin and […] L-glutamine. FS1 cells were grown in DMEM supplemented with 20% FSB, 1% penicillin–streptomycin, 200 mM L-glutamine and 1% nonessential amino acids (NEAA). MPAF cells were cultured in DMEM supplemented with 10% FBS, 1% penicillin–streptomycin, 200 mM L-glutamine and 1% NEAA. TCam2 cell line was cultured in RPMI medium supplemented with 10% FBS, 1% penicillin–streptomycin and […] L-glutamine. All cell lines were kept at 37 °C and 7.5% CO2. 2102EP and NCCIT were a kind gift from Prof. Dr. L. Looijenga (Princess Máxima Center for Pediatric Oncology, Utrecht, The Netherlands). Cisplatin-resistant lines 2102EP-R and NCCIT-R were obtained from PD Dr. F. Honecker (Breast and Tumor Center, ZeTup Silberturm, St. Gallen, Switzerland). MPAFs were a kind gift from […] (Bonn University, Institute of Reconstructive Neurobiology, Bonn, Germany). FS1 cells were obtained from Prof. Dr. V. Schumacher (Boston Children’s Hospital, Department of Urology; Harvard Medical School, Department of Surgery, Boston, MA, USA).\n(§2) The assay was performed based on the reduction in XTT tetrazolium salt as described previously. In summary, 3000 cells were seeded per well of a 96-well cell culture plate in 100 µL of cell culture medium. The next day, cells were treated with CDK inhibitor or CDK degrader for 24/48/72 h. For XTT assay, 0.6 mg/mL XTT sodium salt was dissolved in cell culture medium (DMEM or RPMI) and supplemented with 25 µM electron carrier N-methyl dibenzopyrazine methyl sulfate (PMS). A total of 50 µL of XTT/PMS was added to each well and incubated for 4 h at 37 °C, 7.5% CO2. For readout, absorption was measured at 450 nm and 650 nm. Specific XTT signal (450 nm) was subtracted by nonspecific absorbance (650) and blank (cell culture medium). Averages of technical triplicates were calculated, and treated sample was referenced to the corresponding dimethyl sufoxide (DMSO) control. Experiment was repeated several times to obtain biological replicates. For statistical analysis, two-tailed Student’s t-test was applied."}, "MPAF cells": {"test_system": "MPAF cells", "experiment": "XTT cell viability assay, MPAF fibroblast control", "settings": "for IC50: XTT viability", "experimental": "as §1, §2"}, "FS1 cells": {"test_system": "FS1 cells", "experiment": "XTT cell viability assay, FS1 Sertoli control", "experimental": "as §1, §2"}, "TCam2 cells": {"test_system": "TCam2 cells", "experiment": "XTT cell viability assay, TCam2", "experimental": "as §1, §2"}, "NCCIT cells": {"test_system": "NCCIT cells", "experiment": "XTT cell viability assay, NCCIT", "experimental": "as §1, §2"}, "NCCIT-R cells": {"test_system": "NCCIT-R cells", "experiment": "XTT cell viability assay, NCCIT-R (cisplatin-resistant)", "experimental": "as §1, §2"}, "2102EP-R cells": {"test_system": "2102EP-R cells", "experiment": "XTT cell viability assay, 2102EP-R (cisplatin-resistant)", "experimental": "as §1, §2"}, "2102EP cells": {"test_system": "2102EP cells", "experiment": "XTT cell viability assay, 2102EP", "experimental": "as §1, §2"}, "[1]": {"test_system": "TGCT and control cell lines", "experiment": "Hoechst-FACS cell cycle analysis", "settings": "20 h; NVP2 and SY0351 10 nM, YKL-5-124 and THZ531 100 nM", "experimental": "(§3) Cells were seeded in 6-well cell culture plates (1.5 × 10^5 cells/well). […] For cell cycle analysis, cells were harvested after 20 h of treatment and resuspended in PBS. Ice-cold methanol was added dropwise while shaking until 70% methanol v/v was reached. Cells were incubated for 2 h at 4 °C and subsequently washed twice with cold PBS. Staining (2 µg/mL Hoechst-33342, 50 µg/mL RNaseA in PBS) was performed for 30 min at 37 °C. The cell cycle distribution was measured in an FACS Canto (BD BioSciences, Heidelberg, Germany) and analyzed using FlowJo™ v10.8 Software (BD BioSciences, Heidelberg, Germany). For apoptosis analysis, PE AnnexinV Apoptosis Detection Kit with 7-AAD (BioLegend, San Diego, CA USA) was used according to the manufacturer’s manual. Measurement was performed in an FACS Canto while analysis was performed in the corresponding BD FACSDiva software^TM (BD BioSciences, Heidelberg, Germany). Two-tailed Student’s t-test was applied for calculation of significance."}, "[2]": {"test_system": "TCam2, FS1 and MPAF cells", "experiment": "7AAD/AnnexinV FACS apoptosis analysis, TCam2, FS1 and MPAF", "settings": "10 nM, 24 and 48 h", "experimental": "as §3"}, "2102EP and NCCIT cells": {"test_system": "2102EP and NCCIT cells", "experiment": "7AAD/AnnexinV FACS apoptosis analysis, 2102EP and NCCIT", "settings": "10 nM, 24 and 48 h", "experimental": "as §3"}},
  "data": [
    {"smiles": "CCc1cnn2c(NCc3ccc[n+]([O-])c3)cc(N3CCCC[C@H]3CCO)nc12", "note": "[Dinaciclib, dinaciclib]", "values": [
      {"measurement": "viability (XTT)", "setting": "TGCT cell lines; EC cell lines (2102EP, 2102EP-R, NCCIT, NCCIT-R), 1 nM", "value": "strong decrease in viability"},
      {"measurement": "sensitivity (XTT viability)", "setting": "MPAF cells", "value": "almost resistant"}
    ]},
    {"smiles": "CN1CC[C@H](c2c(O)cc(O)c3c(=O)cc(-c4ccccc4Cl)oc23)[C@H](O)C1", "note": "[Flavo-Piridol, flavopiridol]", "values": [
      {"measurement": "viability (XTT)", "setting": "TGCT cell lines; EC cell lines (2102EP, 2102EP-R, NCCIT, NCCIT-R), 50 nM", "value": "strong decrease in viability"},
      {"measurement": "IC50", "setting": "TGCT cell lines; Homo sapiens, 72 h, tumor (TGCT) cell lines, XTT viability, read-out: IC50 at 72 h, range over tumor cell lines", "value": "7.5 to 273", "unit": "nM"},
      {"measurement": "IC50", "setting": "FS1 cells; Homo sapiens, FS1, 24 h", "value": "> 1000", "unit": "nM"},
      {"measurement": "IC50", "setting": "FS1 cells; Homo sapiens, FS1, 48 h", "value": 696, "unit": "nM"},
      {"measurement": "IC50", "setting": "FS1 cells; Homo sapiens, FS1, 72 h", "value": 91.5, "unit": "nM"},
      {"measurement": "sensitivity (XTT viability)", "setting": "MPAF cells", "value": "almost resistant"},
      {"measurement": "IC50", "setting": "MPAF cells; Homo sapiens, Fibroblast, 24 h", "value": "> 1000", "unit": "nM"},
      {"measurement": "IC50", "setting": "MPAF cells; Homo sapiens, Fibroblast, 48 h", "value": "> 1000", "unit": "nM"},
      {"measurement": "IC50", "setting": "MPAF cells; Homo sapiens, Fibroblast, 72 h", "value": "> 1000", "unit": "nM"},
      {"measurement": "IC50", "setting": "TCam2 cells; Homo sapiens, TCam2, 24 h", "value": "> 1000", "unit": "nM"},
      {"measurement": "IC50", "setting": "TCam2 cells; Homo sapiens, TCam2, 48 h", "value": 582, "unit": "nM"},
      {"measurement": "IC50", "setting": "TCam2 cells; Homo sapiens, TCam2, 72 h", "value": 273, "unit": "nM"},
      {"measurement": "IC50", "setting": "NCCIT cells; Homo sapiens, 24 h", "value": 710, "unit": "nM"},
      {"measurement": "IC50", "setting": "NCCIT cells; Homo sapiens, 48 h", "value": 21.9, "unit": "nM"},
      {"measurement": "IC50", "setting": "NCCIT cells; Homo sapiens, 72 h", "value": 34.1, "unit": "nM"},
      {"measurement": "IC50", "setting": "NCCIT-R cells; Homo sapiens, 24 h", "value": 639, "unit": "nM"},
      {"measurement": "IC50", "setting": "NCCIT-R cells; Homo sapiens, 48 h", "value": 107, "unit": "nM"},
      {"measurement": "IC50", "setting": "NCCIT-R cells; Homo sapiens, 72 h", "value": 43.3, "unit": "nM"},
      {"measurement": "IC50", "setting": "2102EP-R cells; Homo sapiens, 24 h", "value": "> 1000", "unit": "nM"},
      {"measurement": "IC50", "setting": "2102EP-R cells; Homo sapiens, 48 h", "value": 21.9, "unit": "nM"},
      {"measurement": "IC50", "setting": "2102EP-R cells; Homo sapiens, 72 h", "value": 7.56, "unit": "nM"},
      {"measurement": "IC50", "setting": "2102EP cells; Homo sapiens, 24 h", "value": "> 1000", "unit": "nM"},
      {"measurement": "IC50", "setting": "2102EP cells; Homo sapiens, 48 h", "value": 39.9, "unit": "nM"},
      {"measurement": "IC50", "setting": "2102EP cells; Homo sapiens, 72 h", "value": 18, "unit": "nM"}
    ]},
    {"smiles": "COC[C@@H](C)N[C@H]1CC[C@H](Nc2cc(-c3cccc(NCC4(C#N)CCOCC4)n3)c(Cl)cn2)CC1", "note": "[NVP2]", "values": [
      {"measurement": "viability (XTT)", "setting": "TGCT cell lines; TGCT cell lines and FS1 cell line, 10 nM", "value": "effectively reduced the viability"},
      {"measurement": "effect on cell cycle", "setting": "[1]", "value": "only mild effects on the cell cycle"},
      {"measurement": "IC50", "setting": "FS1 cells; FS1, 24 h", "value": 98.2, "unit": "nM"},
      {"measurement": "IC50", "setting": "FS1 cells; FS1, 48 h", "value": 33.5, "unit": "nM"},
      {"measurement": "IC50", "setting": "FS1 cells; FS1, 72 h", "value": 8.9, "unit": "nM"},
      {"measurement": "IC50", "setting": "MPAF cells; 24 h", "value": "> 1000", "unit": "nM"},
      {"measurement": "IC50", "setting": "MPAF cells; 48 h", "value": "> 1000", "unit": "nM"},
      {"measurement": "IC50", "setting": "MPAF cells; 72 h", "value": "> 1000", "unit": "nM"},
      {"measurement": "fold change in apoptotic cells", "setting": "[2]", "value": "up to 3.3 fold"},
      {"measurement": "IC50", "setting": "TCam2 cells; TCam2, 24 h", "value": 216, "unit": "nM"},
      {"measurement": "IC50", "setting": "TCam2 cells; TCam2, 48 h", "value": 60, "unit": "nM"},
      {"measurement": "IC50", "setting": "TCam2 cells; TCam2, 72 h", "value": 16.1, "unit": "nM"},
      {"measurement": "IC50", "setting": "NCCIT cells; 24 h", "value": 90.6, "unit": "nM"},
      {"measurement": "IC50", "setting": "NCCIT cells; 48 h", "value": 40.7, "unit": "nM"},
      {"measurement": "IC50", "setting": "NCCIT cells; 72 h", "value": 6.5, "unit": "nM"},
      {"measurement": "IC50", "setting": "NCCIT-R cells; 24 h", "value": 104, "unit": "nM"},
      {"measurement": "IC50", "setting": "NCCIT-R cells; 48 h", "value": 17.1, "unit": "nM"},
      {"measurement": "IC50", "setting": "NCCIT-R cells; 72 h", "value": 12.2, "unit": "nM"},
      {"measurement": "apoptosis, fold compared to the control", "setting": "2102EP and NCCIT cells", "value": "up to 5.5 fold"},
      {"measurement": "IC50", "setting": "2102EP-R cells; 24 h", "value": 884, "unit": "nM"},
      {"measurement": "IC50", "setting": "2102EP-R cells; 48 h", "value": 11.2, "unit": "nM"},
      {"measurement": "IC50", "setting": "2102EP-R cells; 72 h", "value": 8.6, "unit": "nM"},
      {"measurement": "IC50", "setting": "2102EP cells; 24 h", "value": 503, "unit": "nM"},
      {"measurement": "IC50", "setting": "2102EP cells; 48 h", "value": 10.5, "unit": "nM"},
      {"measurement": "IC50", "setting": "2102EP cells; 72 h", "value": 6.1, "unit": "nM"}
    ]}
  ]
}
